Key:
[1] = system: MO7e human leukemia cells; details: cited from earlier work
[2] = system: NCI-H292 tumor xenografts; experiment: Treatment beyond progression model, NCI-H292 tumor xenografts; assay type: in vivo, female nu/nu CD-1 mice; details: H292 xenografts progressing after 32 days of erlotinib; from time of re-sort; n=8 per group
Text: Many patients with NSCLC who initially respond to erlotinib therapy develop progressive disease within a year of treatment. […] The mechanism for this phenomenon is not currently known. To evaluate this a preclinical model of progressive disease was utilized. This model utilizes the NCI-H292 tumor xenografts which initially respond very well to erlotinib treatment.
(§1) To run the preclinical treatment beyond progression studies NCI-H292 cells were harvested from cell culture flasks during exponential cell growth, washed twice with sterile PBS, counted and resuspended in PBS to a suitable concentration before s.c. implantation on the right flank of female nu/nu CD-1 mice. Tumors were established to 200±50 mm^3 in size before randomization into vehicle control or erlotinib treatment groups. […] Each animal was maintained on its designated dosing regimen until its tumor volume from the time of re-sort had doubled.

[3] = system: H2122 NSCLC tumor xenografts; experiment: Growth of H2122 NSCLC tumor xenografts in mice; assay type: in vivo, female nu/nu CD-1 mice; details: H2122 xenograft, 14th dosing day, single agent 100 mg/kg oral
Procedure: (refrigeration) until dosing. […] Resulting drug was kept at 5° C. (refrigeration) until dosing.

GEO tumor xenografts = experiment: Treatment beyond progression, GEO model; assay type: in vivo, female nu/nu CD-1 mice; details: GEO xenografts progressing after 15 days of erlotinib; from time of re-sort; n=8 per group
Text: as §1, with “study GEO” for “studies NCI-H292”

Compound | GM-CSF stimulated growth of MO7e cells ([1]; GM-CSF stimulated) | apoptosis of MO7e cells ([1]; Kit ligand-stimulated conditions) | Kit ligand-stimulated growth of MO7e cells ([1]; Kit ligand-stimulated) | time to tumor doubling [2] | tumor volume as percent of the initial tumor volume [3] | time to tumor doubling (GEO tumor xenografts)
Cc1ccc(NC(=O)c2ccc(CN3CCN(C)CC3)cc2)cc1Nc1nccc(-c2cccnc2)n1 [Gleevec] | not affected | induces apoptosis | inhibited | – | – | –
O=C(Nc1ccc(OC(F)(F)F)cc1)c1sccc1NCc1ccnc2ccccc12 [OSI-930, 3-[(Quinolin-4-ylmethyl)amino]-N-[4-(trifluoromethoxy)phenyl]thiophene-2-carboxamide] | – | – | – | 30 days | ~120% | 23.5 days
C#Cc1cccc(Nc2ncnc3cc(OCCOC)c(OCCOC)cc23)c1 [erlotinib, [6,7-bis(2-methoxyethoxy)-4-quinazolin-4-yl]-(3-ethynylphenyl) amine] | – | – | – | 19.6 days | approximately 250% | 16.7 days

— patent US20090136517A1, “COMBINED TREATMENT WITH AN EGFR KINASE INHIBITOR AND AN INHIBITOR OF C-KIT” (priority 2007, published 2009)
